# Laboratory results published in patent publication US20190192458A1, “THERAPEUTIC/PROPHYLACTIC AGENT FOR GRAFT-VERSUS-HOST DISEASE, FIBROCYTE INVASION INHIBITOR, AND INHIBITOR AGAINST TEAR REDUCTION AND REDUCTION IN GOBLET CELLS” (KEIO UNIVERSITY, priority 2016, published 2019).
# Experiments:
# [1] = system: CHOP-expressing macrophages in lacrimal gland; experiment: Immunofluorescence of CD68/CHOP in lacrimal gland; type: in vivo; conditions: lacrimal gland from PBA-treated vs vehicle-treated mouse, FIG. 7A
# Experimental: Bone marrow transplantation was performed as described in the above section “Bone marrow transplantation,” and the resulting allogeneic bone marrow transplantation recipient mice were divided into two groups. One group was treated with intraperitoneal injection of PBA (10 mg/kg) (Aldrich) while the other was treated with intraperitoneal injection of a solvent vehicle⋅phosphate buffered saline (PBS) (pH 7.4). The allogeneic bone marrow transplantation recipients received once-daily administration of PBA or the solvent vehicle from Day 10 to Day 27 after bone marrow transplantation. They were sacrificed on Day 28 after bone marrow transplantation. […]
# Fluorescence images were captured under an LSM confocal microscope (Carl Zeiss). For counting CD45^+ cells, 5 randomly selected regions per section were photographed at a magnification of ×200, and the number of CD45^+ cells in each image was then determined. […]
# [2] = system: mouse lacrimal gland fibroblasts; experiment: Cultured lacrimal gland fibroblasts from PBA-treated and vehicle-treated mice (immunoblot, ELISA, qPCR); type: cell-based
# Experimental: Bone marrow transplantation was performed as described in the above section “Bone marrow transplantation,” and the resulting allogeneic bone marrow transplantation recipient mice were divided into two groups. One group was treated with intraperitoneal injection of PBA (10 mg/kg) (Aldrich) while the other was treated with intraperitoneal injection of a solvent vehicle⋅phosphate buffered saline (PBS) (pH 7.4). The allogeneic bone marrow transplantation recipients received once-daily administration of PBA or the solvent vehicle from Day 10 to Day 27 after bone marrow transplantation. They were sacrificed on Day 28 after bone marrow transplantation.
# Fibroblasts from a mouse lacrimal gland were cultured by an established method reported by Yaguchi et al. (Yaguchi S, Ogawa Y, Shimmura S, et al., Presence and Physiologic Function of the Renin—Angiotensin System in Mouse Lacrimal Gland. Investigative Ophthalmology & Visual Science, 2012; 53: 5416-5425). A mouse lacrimal gland was collected and cut into small pieces. The tissue pieces were incubated at 37° C. in DMEM (Life Technologies Japan Ltd.) containing 5% of fetal bovine serum (FBS) Sigma), and 5% of an antibiotic. The antibiotic included a 1:1 mixture of streptomycin sulfate (Meiji Seika Pharma Co., Ltd.) and benzylpenicillin potassium (Meiji Seika Kaisha, Ltd.). The small pieces were used to grow fibroblasts starting from 3 to 4 days later. Fibroblasts were cultured in DMEM containing 5% of FBS and 5% of the antibiotic, and were used in experiments after 3 to 5 passages. Trypsin (Becton Dickinson) was used to detach fibroblasts from the culture dish.
# The total RNA was extracted from the exorbital lacrimal gland, the proximal portion of the small intestine, the dorsal skin, the liver, the cultured fibroblasts, and the cultured macrophages using a miRNeasy mini kit (Qiagen), and the corresponding complementary DNAs were synthesized using a Rever Tra Ace qPCR RT kit (Toyobo Co., Ltd.). Primers used for analyzing the mRNA expression of the following genes with the TaqMan real-time polymerase chain reaction (PCR) were purchased from Applied Biosystems: housekeeping gene […] (GAPDH), glucose-regulated protein 78 (GRP78), Interleukin-1β (IL-1β), IL-6, IL-10, macrophage chemoattractant protein-1 (MCP-1), and transcription growth factor-β (TGF). A Step One Plus system (Applied Biosystems) was used to perform quantitative real time PCR, and the resulting data was analyzed by the 2^−ΔΔCT method. GAPDH was used as an internal standard for measuring the expression of mRNA.
# Tissues of interest were each placed into an Eppendorf tube, and a pre-cooled RIPA buffer solution was then added to the tube. Subsequently, the tissues were each homogenized with an electric homogenizer. Samples were each allowed to stand on ice for 1 hour, and then centrifuged at 15000 rpm for 5 minutes at 4° C. Then, the supernatants were each collected in a fresh tube on ice, and used as a cell lysate. The cell lysates each received the same amount of a 5×Laemmli buffer solution, and each was heated at 100° C. for 5 minutes to denature proteins.
# An aliquot of each sample having the same amount of proteins was loaded into a well of an SDS-PAGE gel, and then […]. Proteins were transferred from the gel to a membrane at 15 V for 20 minutes. The membrane was blocked at room temperature for 1 hour with 5% skim milk or 5% BSA (bovine serum albumin) in 1×TBST (a mixture of Tris-buffered saline and Tween 20). Subsequently, the membrane was incubated with a primary antibody at 4° C. overnight. The above primary antibody was diluted 1000 times with 5% skim milk or 5% BSA in 1×TBST. After incubation with the primary antibody, the membrane was washed with 1×TBST (3×10 minutes), and subjected to a secondary antibody at room temperature for 1 hour, and then washed with 1×TBST (3×10 minutes) and 1×TBS (2×10 minutes).
# Proteins of interest were visualized by either one of the following two methods. […]
# [3] = PBA-treated vs vehicle-treated fibroblasts, immunoblot, n=4
# [4] = cultured fibroblasts from PBA-treated vs vehicle-treated mice, immunoblot
compound,measurement,setting,value
"O=C(O)CCCc1ccccc1 [PBA, 4-phenyl-n-butyric acid]",CHOP-expressing macrophages migrated into lacrimal gland,[1],not observed
same,production of MCP-1 by lacrimal gland fibroblasts,"[2]; PBA-treated vs vehicle-treated fibroblasts, ELISA, n=4",decreased
same,protein level of CTGF in lacrimal gland fibroblasts,[2]; [3],decreased
same,protein level of HSP47 in lacrimal gland fibroblasts,[2]; [3],decreased
same,mRNA levels of IL-6 in lacrimal gland fibroblasts,"[2]; PBA-treated vs vehicle-treated fibroblasts, qPCR, n=4",decreased
same,CHOP in lacrimal gland fibroblasts,[2]; [4],markedly inhibited
same,GRP78 in lacrimal gland fibroblasts,[2]; [4],markedly inhibited
same,phosphorylated IRE1α in lacrimal gland fibroblasts,[2]; [4],markedly inhibited
same,phosphorylated PERK in lacrimal gland fibroblasts,[2]; [4],markedly inhibited
same,phosphorylated eIF2α in lacrimal gland fibroblasts,[2]; [4],markedly inhibited
